From PubChem BioAssay (NCI)
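Assay format: 96-well plates, 48-hour exposure. TGI is the concentration that stops growth completely.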

Legend:
Assay in all cases: growth of human tumour cells (NCI), 48 h
786-0 renal = test system: 786-0 renal
A498 renal = test system: A498 renal
A549 NSCLC = test system: A549 NSCLC
ACHN renal = test system: ACHN renal
BT-549 breast = test system: BT-549 breast
CAKI-1 renal = test system: CAKI-1 renal
CCRF-CEM leukemia = test system: CCRF-CEM leukemia
COLO 205 colon = test system: COLO 205 colon
DU-145 prostate = test system: DU-145 prostate
EKVX NSCLC = test system: EKVX NSCLC
HCC-2998 colon = test system: HCC-2998 colon
HCT-116 colon = test system: HCT-116 colon
HCT-15 colon = test system: HCT-15 colon
HOP-62 NSCLC = test system: HOP-62 NSCLC
HOP-92 NSCLC = test system: HOP-92 NSCLC
HS 578T breast = test system: HS 578T breast
HT29 colon = test system: HT29 colon
IGROV1 ovarian = test system: IGROV1 ovarian
KM12 colon = test system: KM12 colon
LOX IMVI melanoma = test system: LOX IMVI melanoma
M14 melanoma = test system: M14 melanoma
MALME-3M melanoma = test system: MALME-3M melanoma
MCF7 breast = test system: MCF7 breast
MDA-MB-231 breast = test system: MDA-MB-231 breast
MDA-MB-435 = test system: MDA-MB-435
MDA-N = test system: MDA-N
NCI-H226 lung = test system: NCI-H226 lung
NCI-H23 lung = test system: NCI-H23 lung
NCI-H460 lung = test system: NCI-H460 lung
NCI-H522 lung = test system: NCI-H522 lung
NCI/ADR-RES ovarian = test system: NCI/ADR-RES ovarian
OVCAR-3 ovarian = test system: OVCAR-3 ovarian
OVCAR-4 ovarian = test system: OVCAR-4 ovarian
OVCAR-5 ovarian = test system: OVCAR-5 ovarian
OVCAR-8 ovarian = test system: OVCAR-8 ovarian
PC-3 prostate = test system: PC-3 prostate
RXF 393 renal = test system: RXF 393 renal
SF-268 CNS = test system: SF-268 CNS
SF-295 CNS = test system: SF-295 CNS
SF-539 CNS = test system: SF-539 CNS
SK-MEL-2 melanoma = test system: SK-MEL-2 melanoma
SK-MEL-28 melanoma = test system: SK-MEL-28 melanoma
SK-MEL-5 melanoma = test system: SK-MEL-5 melanoma
SK-OV-3 ovarian = test system: SK-OV-3 ovarian
SN12C renal = test system: SN12C renal
SNB-19 CNS = test system: SNB-19 CNS
SNB-75 CNS = test system: SNB-75 CNS
SW-620 colon = test system: SW-620 colon
T-47D breast = test system: T-47D breast
TK-10 renal = test system: TK-10 renal
U251 CNS = test system: U251 CNS
UACC-257 melanoma = test system: UACC-257 melanoma
UACC-62 melanoma = test system: UACC-62 melanoma
UO-31 renal = test system: UO-31 renal
HL-60(TB) leukemia = test system: HL-60(TB) leukemia
K-562 leukemia = test system: K-562 leukemia
MOLT-4 leukemia = test system: MOLT-4 leukemia
RPMI-8226 leukemia = test system: RPMI-8226 leukemia
SR leukemia = test system: SR leukemia

O=C(/C=C/c1ccc(-c2ccccc2)cc1)NCc1ccc(C(=O)NCc2ccccc2)cc1
TGI (786-0 renal): > 100 µM | TGI (A498 renal): > 100 µM | TGI (A549 NSCLC): > 100 µM | TGI (ACHN renal): > 100 µM | TGI (BT-549 breast): > 100 µM | TGI (CAKI-1 renal): > 100 µM | TGI (CCRF-CEM leukemia): > 100 µM | TGI (COLO 205 colon): > 100 µM | TGI (DU-145 prostate): > 100 µM | TGI (EKVX NSCLC): > 100 µM | TGI (HCC-2998 colon): > 100 µM | TGI (HCT-116 colon): > 100 µM | TGI (HCT-15 colon): > 100 µM | TGI (HOP-62 NSCLC): > 100 µM | TGI (HOP-92 NSCLC): > 100 µM | TGI (HS 578T breast): > 100 µM | TGI (HT29 colon): > 100 µM | TGI (IGROV1 ovarian): > 100 µM | TGI (KM12 colon): > 100 µM | TGI (LOX IMVI melanoma): > 100 µM | TGI (M14 melanoma): > 100 µM | TGI (MALME-3M melanoma): > 100 µM | TGI (MCF7 breast): > 100 µM | TGI (MDA-MB-231 breast): > 100 µM | TGI (MDA-MB-435): > 100 µM | TGI (MDA-N): > 100 µM | TGI (NCI-H226 lung): > 100 µM | TGI (NCI-H23 lung): > 100 µM | TGI (NCI-H460 lung): > 100 µM | TGI (NCI-H522 lung): > 100 µM | TGI (NCI/ADR-RES ovarian): > 100 µM | TGI (OVCAR-3 ovarian): > 100 µM | TGI (OVCAR-4 ovarian): > 100 µM | TGI (OVCAR-5 ovarian): > 100 µM | TGI (OVCAR-8 ovarian): > 100 µM | TGI (PC-3 prostate): > 100 µM | TGI (RXF 393 renal): 67.3 µM | TGI (SF-268 CNS): > 100 µM | TGI (SF-295 CNS): > 100 µM | TGI (SF-539 CNS): > 100 µM | TGI (SK-MEL-2 melanoma): > 100 µM | TGI (SK-MEL-28 melanoma): > 100 µM | TGI (SK-MEL-5 melanoma): > 100 µM | TGI (SK-OV-3 ovarian): > 100 µM | TGI (SN12C renal): > 100 µM | TGI (SNB-19 CNS): > 100 µM | TGI (SNB-75 CNS): > 100 µM | TGI (SW-620 colon): > 100 µM | TGI (T-47D breast): > 100 µM | TGI (TK-10 renal): > 100 µM | TGI (U251 CNS): > 100 µM | TGI (UACC-257 melanoma): > 100 µM | TGI (UACC-62 melanoma): > 100 µM | TGI (UO-31 renal): > 100 µM

O=C1/C(=C\c2cccc(Oc3ccccc3)c2)SC(c2ccccc2)N1c1ccccc1 (stereo not given)
TGI (786-0 renal): > 100 µM | TGI (A498 renal): > 100 µM | TGI (A549 NSCLC): > 100 µM | TGI (ACHN renal): > 100 µM | TGI (BT-549 breast): > 100 µM | TGI (CAKI-1 renal): > 100 µM | TGI (CCRF-CEM leukemia): 86.4 µM | TGI (COLO 205 colon): > 100 µM | TGI (DU-145 prostate): > 100 µM | TGI (EKVX NSCLC): > 100 µM | TGI (HCC-2998 colon): > 100 µM | TGI (HCT-116 colon): > 100 µM | TGI (HCT-15 colon): > 100 µM | TGI (HL-60(TB) leukemia): > 100 µM | TGI (HOP-62 NSCLC): > 100 µM | TGI (HOP-92 NSCLC): > 100 µM | TGI (HS 578T breast): > 100 µM | TGI (HT29 colon): > 100 µM | TGI (K-562 leukemia): > 100 µM | TGI (KM12 colon): > 100 µM | TGI (LOX IMVI melanoma): > 100 µM | TGI (M14 melanoma): > 100 µM | TGI (MALME-3M melanoma): > 100 µM | TGI (MCF7 breast): > 100 µM | TGI (MDA-MB-231 breast): > 100 µM | TGI (MDA-MB-435): > 100 µM | TGI (MDA-N): 97.9 µM | TGI (MOLT-4 leukemia): > 100 µM | TGI (NCI-H226 lung): > 100 µM | TGI (NCI-H23 lung): > 100 µM | TGI (NCI-H460 lung): > 100 µM | TGI (NCI-H522 lung): > 100 µM | TGI (NCI/ADR-RES ovarian): > 100 µM | TGI (OVCAR-3 ovarian): > 100 µM | TGI (OVCAR-4 ovarian): > 100 µM | TGI (OVCAR-5 ovarian): > 100 µM | TGI (OVCAR-8 ovarian): > 100 µM | TGI (RPMI-8226 leukemia): 50.3 µM | TGI (RXF 393 renal): > 100 µM | TGI (SF-268 CNS): > 100 µM | TGI (SF-295 CNS): > 100 µM | TGI (SF-539 CNS): 93.6 µM | TGI (SK-MEL-2 melanoma): > 100 µM | TGI (SK-MEL-28 melanoma): > 100 µM | TGI (SK-MEL-5 melanoma): > 100 µM | TGI (SK-OV-3 ovarian): > 100 µM | TGI (SN12C renal): > 100 µM | TGI (SNB-19 CNS): > 100 µM | TGI (SR leukemia): 37.2 µM | TGI (SW-620 colon): > 100 µM | TGI (T-47D breast): > 100 µM | TGI (TK-10 renal): > 100 µM | TGI (U251 CNS): > 100 µM | TGI (UACC-257 melanoma): > 100 µM | TGI (UACC-62 melanoma): > 100 µM | TGI (UO-31 renal): > 100 µM
